What was measured:
Cytochrome P450 2C19 = Cytochrome P450 2C19 (Homo sapiens, UniProt P33261); experiment: Inhibition of human CYP2C19; format: ADME
[1] = Dissociation constant, pKa of the compound; format: physicochemical
Cytochrome P450 2C9 = Cytochrome P450 2C9 (Homo sapiens, UniProt P11712); experiment: Inhibition of human CYP2C9
Sequence of Cytochrome P450 2C9 (P11712 whole entry): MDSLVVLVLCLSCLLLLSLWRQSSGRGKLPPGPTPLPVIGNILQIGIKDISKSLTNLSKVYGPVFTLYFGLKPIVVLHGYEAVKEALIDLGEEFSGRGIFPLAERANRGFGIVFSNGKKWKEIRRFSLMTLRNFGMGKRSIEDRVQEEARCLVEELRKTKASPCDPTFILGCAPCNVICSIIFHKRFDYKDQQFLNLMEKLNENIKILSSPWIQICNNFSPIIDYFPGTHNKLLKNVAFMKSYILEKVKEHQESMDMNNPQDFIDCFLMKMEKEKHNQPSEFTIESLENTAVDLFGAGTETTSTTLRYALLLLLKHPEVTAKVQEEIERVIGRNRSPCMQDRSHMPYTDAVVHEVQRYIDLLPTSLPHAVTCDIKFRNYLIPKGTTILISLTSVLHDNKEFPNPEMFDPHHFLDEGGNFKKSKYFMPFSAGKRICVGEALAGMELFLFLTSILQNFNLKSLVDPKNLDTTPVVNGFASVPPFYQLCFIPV

Sequence of Cytochrome P450 2C19 (P33261 whole entry): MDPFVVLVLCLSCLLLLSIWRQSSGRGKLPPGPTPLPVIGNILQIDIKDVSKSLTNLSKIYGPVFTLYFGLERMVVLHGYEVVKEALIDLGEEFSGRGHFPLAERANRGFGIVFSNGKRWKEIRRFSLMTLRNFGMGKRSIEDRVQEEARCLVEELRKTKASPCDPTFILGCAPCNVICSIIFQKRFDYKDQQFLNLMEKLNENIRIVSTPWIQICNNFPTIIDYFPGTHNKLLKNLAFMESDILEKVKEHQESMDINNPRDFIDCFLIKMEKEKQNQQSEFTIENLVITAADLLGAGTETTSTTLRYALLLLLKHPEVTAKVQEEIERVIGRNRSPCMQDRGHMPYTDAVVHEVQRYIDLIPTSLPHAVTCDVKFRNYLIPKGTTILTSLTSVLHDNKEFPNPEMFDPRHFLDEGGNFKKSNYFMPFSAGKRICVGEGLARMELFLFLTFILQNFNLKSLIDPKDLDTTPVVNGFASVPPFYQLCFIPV

Row | Compound | Ki (Cytochrome P450 2C19) [µM] | Activity [1] | pKa [1] | Ki (Cytochrome P450 2C9) [µM]
1 | CCc1oc2ccccc2c1C(=O)c1cc(Cl)nc(Cl)c1 | 13 | Not Active |  | 
2 | CCc1oc2ccccc2c1C(O)c1cc(Br)c(O)c(Br)c1 (configuration not stated) | 0.3 |  | 8.8 | 
3 | CCc1oc2ccccc2c1C(=O)c1cc(Br)c(OC)c(Br)c1 | 0.37 | Not Active |  | 
4 | Cc1oc2ccccc2c1C(=O)c1cc(Br)c(O)c(Br)c1 | 2.4 |  |  | 
5 | CCc1oc2ccccc2c1C(=O)c1cc(Br)c(O)c(Br)c1 [BENZBROMARONE] |  |  | 4.5 | 
6 | Cc1oc2ccccc2c1C(=O)C1CCCCC1 | 13 | Not Active |  | 
7 | Cc1oc2ccccc2c1C(=O)c1cc(I)c(O)c(I)c1 | 7.2 |  | 5.2 | 
8 | Cc1oc2ccccc2c1C(=O)c1ccc(O)cc1 | 2.5 |  | 8.4 | 
9 | COc1ccc(C(=O)c2c(C)oc3ccccc23)cc1 | 4.5 | Not Active |  | 
10 | Cc1oc2ccccc2c1C(=O)c1cccc(O)c1 | 4.5 |  | 8.4 | 
11 | CCc1oc2ccccc2c1C(=O)c1cc(C)c(O)c(C)c1 | 0.033 |  | 8.5 | 0.04
12 | CCc1oc2ccccc2c1C(=O)Cc1cc(Br)c(O)c(Br)c1 | 1.6 |  | 8.6 | 
13 | CCc1oc2ccccc2c1C(=O)c1ccc(N(C)C)cc1 | 3.7 | Not Active |  | 
14 | CCc1oc2ccccc2c1C(=O)c1cc(C)c(OC)c(C)c1 | 0.25 | Not Active |  | 

Reference: ChEMBL document CHEMBL1149305, “Charge and substituent effects on affinity and metabolism of benzbromarone-based CYP2C19 inhibitors” (J Med Chem, 2004)
